Assays:
[1] = molecular target: T1, bradykinin 1 receptor (B1R) of the rat (Rattus norvegicus, UniProt P97583); assay: FLIPR Ca2+ assay, B1R antagonism, rat; assay type: cell-based; conditions: CHO-K1, 10 μM test substance; CHO K1 cells with rat B1R gene (rB1R cells); Des-Arg9-bradykinin at EC80; % inhibition compared with the maximum achievable inhibition; read-out: B1R antagonism, rat [10 μM] % inhibition
T1 construct: expressed in transfected cells
T1 sequence (P97583 1-337): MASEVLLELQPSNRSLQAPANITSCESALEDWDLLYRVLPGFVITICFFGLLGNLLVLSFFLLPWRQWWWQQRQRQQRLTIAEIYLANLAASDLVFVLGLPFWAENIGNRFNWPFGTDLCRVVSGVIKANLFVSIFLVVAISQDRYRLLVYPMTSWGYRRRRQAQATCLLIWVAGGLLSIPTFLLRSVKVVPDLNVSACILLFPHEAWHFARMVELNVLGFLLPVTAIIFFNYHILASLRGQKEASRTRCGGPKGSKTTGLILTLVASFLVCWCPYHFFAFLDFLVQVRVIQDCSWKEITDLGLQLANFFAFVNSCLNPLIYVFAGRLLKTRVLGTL
How it was run: (§1)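 Antagonism is given as % of maximum achievable suppression of agonist-evoked Ca2+ influx, measured by Fluo-4 peak fluorescence in FLIPR. Stable hB1R or rB1R CHO K1 lines received 10 μM compound for 10-20 min before EC80 Lys-Des-Arg9-bradykinin (human) or Des-Arg9-bradykinin (rat).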

[2] = molecular target: T2, human bradykinin 1 receptor (B1R) (Homo sapiens, UniProt P46663); assay: FLIPR Ca2+ assay, B1R antagonism, human; assay type: cell-based; conditions: 10 μM test substance; CHO K1 cells with human B1R gene (hB1R cells); Lys-Des-Arg9-bradykinin at EC80; % inhibition compared with the maximum achievable inhibition; read-out: B1R antagonism, human [10 μM] % inhibition
T2 construct: expressed in transfected cells
T2 sequence (P46663 1-353): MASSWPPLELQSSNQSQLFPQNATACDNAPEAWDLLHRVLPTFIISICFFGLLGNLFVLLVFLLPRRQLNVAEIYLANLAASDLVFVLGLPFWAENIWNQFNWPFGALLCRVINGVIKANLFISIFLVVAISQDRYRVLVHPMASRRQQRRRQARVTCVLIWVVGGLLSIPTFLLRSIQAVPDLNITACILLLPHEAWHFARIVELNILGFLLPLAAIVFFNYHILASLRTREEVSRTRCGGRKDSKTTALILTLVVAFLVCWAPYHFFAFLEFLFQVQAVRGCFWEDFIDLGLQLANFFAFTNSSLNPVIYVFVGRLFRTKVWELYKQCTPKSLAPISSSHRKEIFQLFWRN
How it was run: as §1

Row | Compound | inhibition at 10 µM [1] [%] | inhibition at 10 µM [2] [%]
1 | CN1CCN(CCCOC2(c3cccnc3)CCN(C(=O)COCC3CCc4ccccc4N3S(=O)(=O)c3ccc(Cl)c(Cl)c3)CC2)CC1 (stereo not shown) [Example 37, 2-((1-(3,4-dichlorophenylsulfonyl)-1,2,3,4-tetrahydroquinolin-2-yl)methoxy)-1-(4-(3-(4-methylpiperazin-1-yl)propoxy)-4-(pyridin-3-yl)piperidin-1-yl)ethanone] | 99 | 77
2 | COc1cc(C)c(S(=O)(=O)N2c3ccccc3OCC2COCC(=O)N2CCC(OCCN3CCCC3)(c3ccncc3)CC2)c(C)c1 (stereo not shown) [Example 108, 2-[[4-[(4-methoxy-2,6-dimethyl-phenyl)sulfonyl]-3,4-dihydro-2H-[1,4]benzoxazin-3-yl]-methoxy]-1-[4-pyridin-4-yl-4-(2-pyrrolidin-1-yl-ethoxy)-piperidin-1-yl]-ethanone] | 103 | 100
3 | O=C(CC(NS(=O)(=O)c1ccc2ccccc2c1)c1ccccc1)N1CCC(OCCCN2CCCC2)(c2cccnc2)CC1 (stereo not shown) [Example 44, N-(3-oxo-1-phenyl-3-(4-(pyridin-3-yl)-4-(3-(pyrrolidin-1-yl)propoxy)piperidin-1-yl)propyl)naphthalene-2-sulfonamide] | 102 | 95
4 | COc1cc(C)c(S(=O)(=O)N2c3ccccc3OCC2COCC(=O)N2CCC(OCCN3CCCC3)(c3cccnc3)CC2)c(C)c1 (stereo not shown) [Example 106, 2-[[4-[(4-methoxy-2,6-dimethyl-phenyl)sulfonyl]-3,4-dihydro-2H-[1,4]benzoxazin-3-yl]-methoxy]-1-[4-pyridin-3-yl-4-(2-pyrrolidin-1-yl-ethoxy)-piperidin-1-yl]-ethanone] | 101 | 100
5 | COc1cc(C)c(S(=O)(=O)N2c3ccccc3CCC2COCC(=O)N2CCC(OCCN3CCCC3)(c3ccncc3)CC2)c(C)c1 (stereo not shown) [Example 103, 2-[[1-[(4-methoxy-2,6-dimethyl-phenyl)sulfonyl]-1,2,3,4-tetrahydro-quinolin-2-yl]-methoxy]-1-[4-pyridin-4-yl-4-(2-pyrrolidin-1-yl-ethoxy)-piperidin-1-yl]-ethanone] | 103 | 100
6 | COc1cc(C)c(S(=O)(=O)N(C)CCOCC(=O)N2CCC(OCCN3CCCC3)(c3cccnc3)CC2)c(C)c1C [Example 113, 4-methoxy-N,2,3,6-tetramethyl-N-[2-[2-oxo-2-[4-pyridin-3-yl-4-(2-pyrrolidin-1-yl-ethoxy)-piperidin-1-yl]-ethoxy]-ethyl]-benzenesulfonic acid amide] | 103 | 100
7 | COc1cc(C)c(S(=O)(=O)N2CCCCC2CCCC(=O)N2CCC(OCCN3CCCC3)(c3cccc(F)c3)CC2)c(C)c1 (stereo not shown) [Example 89, 1-[4-(3-fluorophenyl)-4-(2-pyrrolidin-1-yl-ethoxy)-piperidin-1-yl]-4-[1-[(4-methoxy-2,6-dimethyl-phenyl)sulfonyl]-piperidin-2-yl]-butan-1-one] | 99 | 100
8 | O=C(COCCN(C1CCc2ccccc21)S(=O)(=O)c1ccc(Cl)cc1Cl)N1CCC(OCCN2CCCC2)(c2cccnc2)CC1 (stereo not shown) [Example 7, 2,4-dichloro-N-(2,3-dihydro-1H-inden-1-yl)-N-(2-(2-oxo-2-(4-(pyridin-3-yl)-4-(2-(pyrrolidin-1-yl)ethoxy)piperidin-1-yl)ethoxy)ethyl)benzenesulfonamide] | 94 | 99

Further lines, results first:

Row | inhibition at 10 µM [1] [%] | inhibition at 10 µM [2] [%] | Compound
9 | 102 | 100 | Cc1cccc(Cl)c1S(=O)(=O)N1CCCCC1CCCC(=O)N1CCC(OCCN2CCCC2)(c2cccnc2)CC1 (stereo not shown) [Example 9, 4-(1-(2-chloro-6-methylphenylsulfonyl)piperidin-2-yl)-1-(4-(pyridin-3-yl)-4-(2-(pyrrolidin-1-yl)ethoxy)piperidin-1-yl)butan-1-one]
10 | 96 | 99 | COc1cc(C)c(S(=O)(=O)N2CCCC[C@H]2COCC(=O)N2CCC(OCCN3CCCC3)(c3cccc(C(F)(F)F)c3)CC2)c(C)c1 [Example 54, 2-[[(2S)-1-[(4-methoxy-2,6-dimethyl-phenyl)sulfonyl]-piperidin-2-yl]-methoxy]-1-[4-(2-pyrrolidin-1-yl-ethoxy)-4-[3-(trifluoromethyl)phenyl]-piperidin-1-yl]-ethanone]
11 | 48 | 52 | O=C(CC1CCCCN1S(=O)(=O)c1cccc(C(F)(F)F)c1)N1CCC(OCCCN2CCCC2)(c2cccnc2)CC1 (stereo not shown) [Example 42, 1-(4-(pyridin-3-yl)-4-(3-(pyrrolidin-1-yl)propoxy)piperidin-1-yl)-2-(1-(3-(trifluoromethyl)phenylsulfonyl)piperidin-2-yl)ethanone]
12 | 97 | 98 | COc1cc(C)c(S(=O)(=O)N2CCCC[C@H]2COCC(=O)N2CCC(OCCN3CCCC3)(c3cccc(F)c3)CC2)c(C)c1 [Example 51, (S)-1-(4-(3-fluorophenyl)-4-(2-(pyrrolidin-1-yl)ethoxy)piperidin-1-yl)-2-((1-(4-methoxy-2,6-dimethylphenylsulfonyl)piperidin-2-yl)methoxy)ethanone]
13 | 72 | 86 | Cc1cc(S(=O)(=O)N2CCCCC2CCC(=O)N2CCC(OCCN3CCCC3)(c3cccnc3)CC2)c(C)cc1Cl (stereo not shown) [Example 25, 3-(1-(4-chloro-2,5-dimethylphenylsulfonyl)piperidin-2-yl)-1-(4-(pyridin-3-yl)-4-(2-(pyrrolidin-1-yl)ethoxy)piperidin-1-yl)propan-1-one]
14 | 97 | 21 | CN1CCN(CCCOC2(c3cccnc3)CCN(C(=O)CC3CCCCN3S(=O)(=O)c3cccc(C(F)(F)F)c3)CC2)CC1 (stereo not shown) [Example 35, 1-(4-(3-(4-methylpiperazin-1-yl)propoxy)-4-(pyridin-3-yl)piperidin-1-yl)-2-(1-(3-(trifluoromethyl)phenylsulfonyl)piperidin-2-yl)ethanone]
15 | 101 | 100 | O=C(COCC1CCCCN1S(=O)(=O)c1ccccc1C(F)(F)F)N1CCC(OCCN2CCCC2)(c2cccnc2)CC1 (stereo not shown) [Example 116, 1-[4-pyridin-3-yl-4-(2-pyrrolidin-1-yl-ethoxy)-piperidin-1-yl]-2-[[1-[[2-(trifluoromethyl)-phenyl]sulfonyl]-piperidin-2-yl]-methoxy]-ethanone]
16 | 102 | 99 | COc1cc(C)c(S(=O)(=O)N2CCCCC2COCC(=O)N2CCC(OCCCN3CCCC3)(c3cccnc3)CC2)c(C)c1 (stereo not shown) [Example 40, 2-((1-(4-methoxy-2,6-dimethylphenylsulfonyl)piperidin-2-yl)methoxy)-1-(4-(pyridin-3-yl)-4-(3-(pyrrolidin-1-yl)propoxy)piperidin-1-yl)ethanone]
17 | 105 | 99 | Cc1cccc(Cl)c1S(=O)(=O)N1CCCC[C@H]1COCC(=O)N1CCC(OCCN2CCCC2)(c2cccnc2)CC1 [Example 48, (S)-2-((1-(2-chloro-6-methylphenylsulfonyl)piperidin-2-yl)methoxy)-1-(4-(pyridin-3-yl)-4-(2-(pyrrolidin-1-yl)ethoxy)piperidin-1-yl)ethanone]

— patent US8318769B2, “Substituted sulfonamide compounds” (Gruenethal GmbH, priority 2008, dated 2012)
